Source: patent US12661415B2, “Isoindolinone compounds and imaging agents for imaging Huntingtin protein” (CHDI Foundation, Inc., priority 2021, dated 2026)
“Also recorded” adds a separate entry of the source.

What was measured:
[1] = target: T1, MBP-HTT(1-89)Q46-His(6×) (Exon1-Q46) protein aggregates (Homo sapiens, UniProt P42858, INS38QQQQQQQQQQQQQQQQQQQQQQQQQ); assay: Exon1-Q46 radioligand binding assay (RBA); conditions: aggregated Exon1-Q46 1 μM; 0.3 nM ligand [3H3-methyl]-5-((5-methoxypyridin-2-yl)methoxy)-2-(pyrazin-2-yl)benzo[d]oxazole; 60 minutes at 37° C.; read-out: Potency Range (IC50)
T1 construct: MBP-HTT(1-89)Q46-His(6×); His(6×) (C); made in house
Experimental: Exon1-Q46 Radioligand Binding Assay
For radioligand binding assays (RBA) MBP-HTT(1-89)Q46-His(6×) (“Exon1-Q46”) protein was generated based on a previous publication (Scherzinger et al. Cell, Vol. 90, 549-558, Aug. 8, 1997). For experiments 30 μM MBP-Exon1-Q46 was incubated with 150 μg/mL thrombin in assay buffer (150 mM NaCl, 50 mM Tris pH 8.0) and 2 mM CaCl2 for 16 hours at 37° C. Aggregated Exon1-Q46 was pelleted by centrifugation for 5 minutes at 13,000 rpm in a bench top centrifuge and re-dissolved in the same volume of assay buffer. Test compounds were prepared by titration in DMSO at 11 concentrations from 63 μM to 2 nM. For the RBA, Exon1-Q46 protein aggregates and test compounds were pre-incubated in assay buffer for 20 minutes at room temperature, in 100 μL/well in a 96-well plate (pp, round bottom). Then, ligand was added in 50 μL/well and incubated for 60 minutes at 37° C. Final assay concentrations were 1 μM to 30 pM test compound, 1 μM Exon1-Q46 protein (equivalent monomer concentration) and 0.3 nM ligand [^3H3-methyl]-5-((5-methoxypyridin-2-yl)methoxy)-2-(pyrazin-2-yl)benzo[d]oxazole. Samples were transferred onto GF/B filter plates and washed 2× with 200 μL PBS using a Filtermate Harvester. After drying filter plates for 1 hour at 55° C., the back of the plates were sealed with foil and 30 μL/well scintillation fluid (Packard MicroScint 40) added, incubated for 15 minutes in the dark and counted in a MicroBeta reader. For analysis, replicate data from independent assay plates were normalized towards 0% and 100% inhibition using control wells of vehicle (0% inhibition) and 1 μM unlabelled [^3H3-methyl]-5-((5-methoxypyridin-2-yl)methoxy)-2-(pyrazin-2-yl)benzo[d]oxazole (100% inhibition). IC50 values were determined with a sigmoidal inhibition model with four variables (top, bottom, slope, IC50) in a global fit using the normalized replicate data.
The results for various example compounds were as provided in the table below (+++<100 nM; ++100−500 nM; +>500 nM; ND: not determined): […]

[2] = Unbound brain fraction (fu,brain) in mouse brain by equilibrium dialysis; assay type: in vitro ADME; conditions: 20% mouse brain homogenate, 5 μM, equilibrium dialysis 6 h at 37° C., average of triplicate
Experimental: Compounds were tested for unbounded brain fraction (or free fraction in brain, fu,brain). It is an accepted standard in the CNS PET imaging field that compounds with low unbound fraction in brain (<5%) likely have high non-specific binding background that is undesirable for the detection of target binding. As a result, fu,brain is an important property in the design of PET ligands for brain imaging [see Zhang et al., Design and selection parameters to accelerate the discovery of novel central nervous system positron emission tomography (PET) ligands and their application in the development of a novel phosphodiesterase 2A PET ligand. J Med Chem 2013, 56 (11), 4568-79; Liu et al., Imaging Mutant Huntingtin Aggregates: Development of a Potential PET Ligand. J Med Chem 2020, 63 (15), 8608-8633].
Determining fu,brain in Mouse Brain by Equilibrium Dialysis. Dialysis membranes (12-14 kDa) (HTDialysis, Connecticut) were soaked in phosphate buffer (10 mM potassium phosphate and 0.8% sodium chloride buffer, pH 7.4 at 37° C.) for a minimum of 1 h, at this time ethanol was added (final concentration of 20% v/v) and membranes continued to soak for 30 min Mouse brain tissue was diluted in phosphate buffer in a […] (w/v) and homogenised using a Precellys 24 (Stretton Scientific, UK) to achieve a final concentration of 20% brain homogenate.
Test compounds prepared as DMSO stocks at 0.5 mM are diluted into brain homogenate to achieve 5 μM final substrate concentration (1% DMSO) and a t=0 sample was prepared by sampling 50 μL of into 400 μL of quench solution (Acetonitrile containing 0.1% formic acid and sulfisoxazole/tolbutamide/imipramine/labetalol 200 nM). Samples were matrix matched with the addition of 50 μL of assay buffer. The HTDialysis Teflon blocks (HTDialysis, Connecticut) were assembled with pre-soaked membrane between each receiver and donor well and clamped in the stainless steel pressure plate (HTDialysis, Connecticut). The lower compartment (acceptor side) was dosed with 120 μL of buffer and the upper compartment (donor side) was dosed with 120 μL of compound in homogenate. All test compounds and controls were completed in triplicate. The HT dialysis plate was sealed and incubated for 6 h at 37° C. shaking at 250 rpm.
Following the incubation, 50 μL of sample was removed from all donor and acceptor wells and transferred into a quench plate containing 400 μL of quench solution. All samples were matrix matched with 50 μL of the alternate blank matrix. Analytical samples were diluted 1:1 with water using the Janus Robot and analysed by LC-MS/MS.
Peak areas of donor and acceptor compartments were compared to determine percent unbound (% fu) and the average of triplicate measurements was reported. Reference T0 sample was used to calculate sample recovery (%). Control compounds were compared with historic and literature values to ensure assay functionality.

mHTT aggregates [3] = target: mHTT aggregates (Mus musculus, UniProt P42859); assay: In situ autoradiography (ARG) saturation binding, HOM zQ175 HD mouse model brain sections; conditions: cortex, 12-month-old HOM zQ175, tritium-labeled radioligand
Description: In situ autoradiography (ARG) was used to investigate the pharmacological binding characteristics of a tritium-labeled Compound 1-6 (“[^3H]-Compound 1-6”) in the HD mouse model 12-month-old HOM zQ175 and human post-mortem brains from healthy and HD gene-expanded carriers ([…]); specificity of binding was explored by including samples from Alzheimer's disease (AD) patients, which contain other pathological aggregates (e.g., Abeta-containing plaques and phosphor-Tau-expressing tangles). Saturation binding experiments were performed in coronal brain sections; [^3H]-Compound 1-6 binding was quantified by densitometric analysis and specific binding was determined in cortex (CTX). Affinity (KD) and maximum number of binding sites (Bmax) were determined for each region of interest (ROI). At the appropriate ages, HD and WT mice of the different strains were sacrificed by cervical dislocation, and the brains, including cerebellum, were dissected and washed in ice cold PBS. Subsequently, the brains were patted dry on paper towels and transferred into a 6-well plate filled with isopentane that was cooled to a temperature between -30° C. and -40° C. The frozen brains were stored at -80° C. until sectioning. The non-fixed and non-embedded frozen brains were sectioned by using a cryostat at -18° C. Thereby, serial coronal tissue sections of 20 μm thickness were mounted on superfrost slides and dried at room temperature for approximately 90 minutes. The slides were stored at -80° C. until the different experiments were conducted, but not longer than 3 weeks. A similar procedure was conducted with fresh-frozen human post-mortem brain blocks (healthy subjects {CTRL}, Huntingon's disease {HD}, and Alzheimer's disease {AD}). The appropriate number of slides containing the respective tissue sections were acclimated to room temperature for 30 minutes. The slides were then pre-incubated by immersion into 40 mL assay buffer for 20 minutes at room temperature. […] Within each brain section, regions of interest (ROI) were defined for STR, CTX, and HPC by using appropriate sample tools, and the software calculated density measures from the gray level values of all pixels within a defined ROI (Molecular dynamics counts per unit area, MDC/mm^2). Densitometric calibration related the optical densities to known concentrations of radioactivity from the calibrated tritium standards (fmol/mg tissue) and mean values were calculated for each ROI of the individual brains. Total binding (TB) and non-specific binding (NSB) of the radioligand were quantified, and specific binding (SB) was derived by subtracting NSB from TB (SB=TB-NSB) for each brain and ROI, respectively. Subsequently, the group mean±standard deviation (SD) was calculated for each ROI and experimental condition. […]

mHTT aggregates [4] = assay: In situ autoradiography (ARG) binding, human post-mortem brain sections; conditions: human HD brain sections, 0.3 nM radioligand
Description: In situ autoradiography (ARG) was used to investigate the pharmacological binding characteristics of a tritium-labeled Compound 1-6 (“[^3H]-Compound 1-6”) in the HD mouse model 12-month-old HOM zQ175 and human post-mortem brains from healthy and HD gene-expanded carriers (HDGECs); specificity of binding was explored by including samples from Alzheimer's disease (AD) patients, which contain other pathological aggregates (e.g., Abeta-containing plaques and phosphor-Tau-expressing tangles). Saturation binding experiments were performed in coronal brain sections; [^3H]-Compound 1-6 binding was quantified by densitometric analysis and specific binding was determined in cortex (CTX). Affinity (KD) and maximum number of binding sites (Bmax) were determined for each region of interest (ROI).
The non-fixed and non-embedded frozen brains were sectioned by using a cryostat at −18° C. Thereby, serial coronal tissue sections of 20 μm thickness were mounted on superfrost slides and dried at room temperature for approximately 90 minutes. The slides were stored at −80° C. until the different experiments were conducted, but not longer than 3 weeks. A similar procedure was conducted with fresh-frozen human post-mortem brain blocks (healthy subjects {CTRL}, Huntingon's disease {HD}, and Alzheimer's disease {AD}).
The appropriate number of slides containing the respective tissue sections were acclimated to room temperature for 30 minutes. The slides were then pre-incubated by immersion into 40 mL assay buffer for 20 minutes at room temperature. Following this pre-incubation step, one slide per animal was incubated by immersion into 30 mL of the 10 nM, 3 nM, 1 nM, 0.3 nM, 0.1 nM, 0.03 nM, 0.01 nM, or 0.003 nM Compound 1-6 solutions and one slide was incubated by immersion into 30 mL of 10 nM, 3 nM, 1 nM, 0.3 nM, 0.1 nM, 0.03 nM, 0.01 nM, or 0.003 nM [^3H]-Compound 1-6, plus 10 μM unlabeled Compound 1-6 solutions for 60 minutes at room temperature, respectively. A similar paradigm was performed with tritium-labeled Comparative Compound 3 (“[^3H]-Comparative Compound 3”) and tritium-labeled Comparative Compound 4 (“[^3H]-Comparative Compound 4”). Structures of these comparative compounds and compound 1-6 are shown below.
Afterwards, the slides were washed three times for 10 minutes with 200 mL of ice cold washing buffer at 4° C. and dipped for three seconds in ice cold distilled water to remove buffer salts. The slides were dried for three hours at 30° C. and exposed for 96 hours to Fuji BAS-TR 2015 tritium phosphor screens together with the calibrated tritium standards ART 0123C and ART 0123B. Stored radiation energy on the screen was scanned using the phosphorimager Typhoon FLA 7000.
Densitometric data analysis was performed using the MCID Analysis 7.1 software (Interfocus Imaging Ltd.). Within each brain section, regions of interest (ROI) were defined for STR, CTX, and HPC by using appropriate sample tools, and the software calculated density measures from the gray level values of all pixels within a defined ROI (Molecular dynamics counts per unit area, MDC/mm^2). Densitometric calibration related the optical densities to known concentrations of radioactivity from the calibrated tritium standards (fmol/mg tissue) and mean values were calculated for each ROI of the individual brains. Total binding (TB) and non-specific binding (NSB) of the radioligand were quantified, and specific binding (SB) was derived by subtracting NSB from TB (SB=TB−NSB) for each brain and ROI, respectively. Subsequently, the group mean±standard deviation (SD) was calculated for each ROI and experimental condition. The data were fitted to one-site binding equation using non-linear regression method in GraphPad Prism Software.

T1 sequence (P42858 with tags, fused parts or gaps with the stated changes): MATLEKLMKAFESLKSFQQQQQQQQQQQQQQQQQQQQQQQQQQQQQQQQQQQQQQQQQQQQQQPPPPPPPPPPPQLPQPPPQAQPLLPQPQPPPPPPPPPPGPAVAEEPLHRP
Chain of mHTT aggregates (Mus musculus, UniProt P42859) (P42859 whole entry): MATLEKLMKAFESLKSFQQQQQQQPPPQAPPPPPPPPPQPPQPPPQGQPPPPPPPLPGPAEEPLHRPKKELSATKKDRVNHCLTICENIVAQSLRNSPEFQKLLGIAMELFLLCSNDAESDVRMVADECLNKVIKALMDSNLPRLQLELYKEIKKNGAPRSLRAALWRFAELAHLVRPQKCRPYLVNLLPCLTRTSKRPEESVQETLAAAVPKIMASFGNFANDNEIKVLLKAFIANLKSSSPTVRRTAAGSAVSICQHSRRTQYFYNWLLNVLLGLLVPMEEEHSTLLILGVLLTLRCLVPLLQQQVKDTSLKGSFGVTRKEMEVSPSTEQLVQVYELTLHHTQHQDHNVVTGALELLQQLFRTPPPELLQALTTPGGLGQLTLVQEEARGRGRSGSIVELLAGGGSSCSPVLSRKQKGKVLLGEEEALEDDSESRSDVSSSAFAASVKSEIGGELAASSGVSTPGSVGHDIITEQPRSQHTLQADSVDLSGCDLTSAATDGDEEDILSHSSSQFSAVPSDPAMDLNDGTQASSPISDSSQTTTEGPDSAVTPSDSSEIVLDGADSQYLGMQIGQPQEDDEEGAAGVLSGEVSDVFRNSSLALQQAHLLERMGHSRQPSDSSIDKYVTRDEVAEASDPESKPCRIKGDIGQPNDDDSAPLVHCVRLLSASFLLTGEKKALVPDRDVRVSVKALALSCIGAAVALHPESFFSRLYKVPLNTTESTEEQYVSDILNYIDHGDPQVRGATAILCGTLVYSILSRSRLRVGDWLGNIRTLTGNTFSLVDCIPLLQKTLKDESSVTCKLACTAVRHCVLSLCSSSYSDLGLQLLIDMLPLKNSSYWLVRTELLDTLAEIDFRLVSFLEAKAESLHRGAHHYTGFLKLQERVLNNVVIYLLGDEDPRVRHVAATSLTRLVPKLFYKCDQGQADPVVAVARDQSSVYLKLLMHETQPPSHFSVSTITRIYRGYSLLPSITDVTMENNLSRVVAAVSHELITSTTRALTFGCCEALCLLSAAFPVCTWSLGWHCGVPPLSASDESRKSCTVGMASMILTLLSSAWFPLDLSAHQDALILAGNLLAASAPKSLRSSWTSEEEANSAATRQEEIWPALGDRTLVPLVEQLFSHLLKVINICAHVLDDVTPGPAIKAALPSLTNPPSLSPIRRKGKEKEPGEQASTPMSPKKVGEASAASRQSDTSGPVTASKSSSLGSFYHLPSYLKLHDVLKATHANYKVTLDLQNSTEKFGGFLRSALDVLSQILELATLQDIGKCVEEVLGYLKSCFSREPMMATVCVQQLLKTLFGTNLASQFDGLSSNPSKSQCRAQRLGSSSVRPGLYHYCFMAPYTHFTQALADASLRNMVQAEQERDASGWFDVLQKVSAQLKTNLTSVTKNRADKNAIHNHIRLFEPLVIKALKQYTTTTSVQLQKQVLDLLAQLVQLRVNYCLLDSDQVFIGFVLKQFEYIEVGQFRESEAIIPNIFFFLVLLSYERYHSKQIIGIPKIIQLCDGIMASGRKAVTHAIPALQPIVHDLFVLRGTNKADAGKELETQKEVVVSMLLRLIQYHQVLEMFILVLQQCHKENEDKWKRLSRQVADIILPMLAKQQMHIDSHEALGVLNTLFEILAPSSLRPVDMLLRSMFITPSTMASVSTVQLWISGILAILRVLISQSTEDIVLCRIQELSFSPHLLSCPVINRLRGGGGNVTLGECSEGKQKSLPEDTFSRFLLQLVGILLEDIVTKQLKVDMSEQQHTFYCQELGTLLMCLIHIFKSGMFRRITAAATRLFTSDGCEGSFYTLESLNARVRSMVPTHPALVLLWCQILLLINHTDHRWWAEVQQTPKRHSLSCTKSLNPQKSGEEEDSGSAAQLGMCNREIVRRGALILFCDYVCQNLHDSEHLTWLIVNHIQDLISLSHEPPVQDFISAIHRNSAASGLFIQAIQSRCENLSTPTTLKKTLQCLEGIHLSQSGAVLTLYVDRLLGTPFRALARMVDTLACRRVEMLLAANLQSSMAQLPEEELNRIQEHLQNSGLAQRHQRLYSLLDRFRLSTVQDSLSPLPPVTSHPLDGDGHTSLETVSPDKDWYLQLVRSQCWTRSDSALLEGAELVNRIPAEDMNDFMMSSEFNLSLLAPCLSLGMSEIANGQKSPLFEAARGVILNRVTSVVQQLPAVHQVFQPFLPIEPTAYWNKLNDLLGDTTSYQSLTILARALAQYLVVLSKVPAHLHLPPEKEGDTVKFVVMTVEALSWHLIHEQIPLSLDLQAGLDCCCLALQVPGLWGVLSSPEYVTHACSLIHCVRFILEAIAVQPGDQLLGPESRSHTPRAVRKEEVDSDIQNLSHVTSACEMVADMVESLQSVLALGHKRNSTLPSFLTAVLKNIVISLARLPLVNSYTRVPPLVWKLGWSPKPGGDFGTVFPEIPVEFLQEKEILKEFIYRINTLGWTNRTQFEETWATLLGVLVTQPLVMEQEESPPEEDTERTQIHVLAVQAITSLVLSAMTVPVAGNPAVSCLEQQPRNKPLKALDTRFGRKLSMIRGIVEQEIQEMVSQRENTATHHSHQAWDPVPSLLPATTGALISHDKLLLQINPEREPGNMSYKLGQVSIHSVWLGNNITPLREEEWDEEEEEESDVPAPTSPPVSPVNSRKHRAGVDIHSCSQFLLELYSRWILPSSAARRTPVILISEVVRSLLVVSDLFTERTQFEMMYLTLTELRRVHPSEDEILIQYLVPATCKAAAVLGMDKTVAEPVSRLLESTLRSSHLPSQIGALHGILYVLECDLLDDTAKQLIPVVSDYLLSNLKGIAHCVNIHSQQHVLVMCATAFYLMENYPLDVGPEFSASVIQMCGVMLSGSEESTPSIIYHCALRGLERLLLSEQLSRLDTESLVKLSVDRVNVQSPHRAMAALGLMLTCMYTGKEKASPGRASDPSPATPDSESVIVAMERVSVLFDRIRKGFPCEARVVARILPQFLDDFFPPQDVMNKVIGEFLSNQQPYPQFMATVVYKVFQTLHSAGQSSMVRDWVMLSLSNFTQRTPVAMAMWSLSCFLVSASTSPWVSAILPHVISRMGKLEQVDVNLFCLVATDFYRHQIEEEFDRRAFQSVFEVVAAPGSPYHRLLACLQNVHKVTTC

Compound	IC50 [1] [nM]	Mean Free Brain Fraction (%) [2] [%]	Bmax (mHTT aggregates [3]) [fmol/mg]	specific HD binding at 0.3 nM radioligand (mHTT aggregates [4])
COc1ccc(COc2cc3c(cc2F)CN(c2ccc(=O)[nH]n2)C3=O)nc1 [Compound 13-2, 5-Fluoro-6-[(5-methoxy-2-pyridyl)methoxy]-2-(6-oxo-1H-pyridazin-3-yl)isoindolin-1-one]	< 100	6.5		
COc1ccc(COc2cc(F)c3c(c2)C(=O)N(c2ccc(=O)[nH]n2)C3)nc1 [Compound 13-3, 4-Fluoro-6-[(5-methoxy-2-pyridyl)methoxy]-2-(6-oxo-1H-pyridazin-3-yl)isoindolin-1-one]	< 100	6.2		
COc1ccc(COc2cc3c(cc2F)CN(c2cn(C)c(=O)cn2)C3=O)nc1 [Compound 14-1, 5-Fluoro-6-((5-methoxypyridin-2-yl)methoxy)-2-(4-methyl-5-oxo-4,5-dihydropyrazin-2-yl)isoindolin-1-one]	< 100	15.5		
COc1ccc(COc2cc3c(cc2F)CN(c2cnc(OC)cn2)C3=O)nc1 [Compound 14-2, 5-Fluoro-2-(5-methoxypyrazin-2-yl)-6-((5-methoxypyridin-2-yl)-methoxy)isoindolin-1-one]	< 100	0.7		
COc1ccc(COc2cc3c(cc2F)C(=O)N(c2cn(C)c(=O)cn2)C3)nc1 [Compound 14-3, 6-Fluoro-5-((5-methoxypyridin-2-yl)methoxy)-2-(4-methyl-5-oxo-4,5-dihydropyrazin-2-yl)isoindolin-1-one]	< 100	17.1		
COc1ccc(NC(=O)c2ccn3c(n2)nc2ccccc23)cn1 [[^3H]-Comparative Compound 3, reference compound]			169	no HD binding was detectable; also recorded: failed to reveal HD binding
